Data reported in patent US6653318B1, “5-(E)-Bromovinyl uracil analogues and related pyrimidine nucleosides as anti-viral agents and methods of use” (Yale University, priority 1999, dated 2003).
Where two headings read alike, the source gives them in different places.

Experiments:
HSV-1 = assay: Virus growth inhibition assay, HSV plaque reduction; format: cell-based, Herpes Simplex virus
Experimental: (§1) Virus growth inhibition assay. Confluent virus permissive cells in 12-well plates are inoculated with the virus at 30˜40 pfu/well. After one-hour adsorption at 37° C., the inoculum is replaced with the medium containing 10% of dialyzed FBS and tested compounds at various dosages. Each dosage is duplicated. The infected cells are harvested at 72-hour postinfection. For HSV virus, the plaque reduction assay is performed to measure the virus growth. ID50 is designated as the dosage that inhibits 50% of plaque formation compared with untreated controls. For VZV and EBV, the infected cells are lysed by “freeze-thaw” and the lysate is treated with protease K and RNase. The DNA is then subjected to slot-blot as described previous (Yao, et al., Biochem. Pharmacol. 51: 941-947). The viral DNA is detected by hybridization with ^32P-labeled DNA fragment of viral specific gene. Autoradiographic results are quantitated by Personal Densitometer SI (Molecular Dynamics., Sunnyvale, Calif.). The same membrane is stripped and rehybridized with human β-actin gene fragment. The viral DNA amount is subsequently normalized by viral DNA/human actin DNA. The concentration of the tested compounds, which inhibit 50% of viral DNA synthesis compared to untreated control, is defined as IC50.

[1] = Cell cytotoxicity assay, cell growth; format: cell-based; details: human; CEM cells, three-day growth, 50% inhibition of cell growth
Experimental: (§2) Cell Cytotoxicity Assay. CEM cells are grown at 2.5×10^4 Cells per ml in RPM1 media supplemented with 20% dialyzed FBS. When cells double, they are seeded in 24-well plates at 1 ml/well. The tested drugs are added at various diluted dosage. After three-day growth at 37° C., 5% CO2, the cells are harvested and counted by using Coulter counter. Cytotoxicity IC50 is designated as the dosage that inhibits 50% of the cell growth compared to the untreated controls.

VZV = assay: Virus growth inhibition assay, VZV viral DNA slot-blot; format: cell-based, Varicella-Zoster virus; details: read-out: IC50 VZV
Experimental: Virus growth inhibition assay. Confluent virus permissive cells in 12-well plates are inoculated with the virus at 30˜40 pfu/well. After one-hour adsorption at 37° C., the inoculum is replaced with the medium containing 10% of dialyzed FBS and tested compounds at various dosages. Each dosage is duplicated. The infected cells are harvested at 72-hour postinfection. For HSV virus, the plaque reduction assay is performed to measure the virus growth. […] For VZV and EBV, the infected cells are lysed by “freeze-thaw” and the lysate is treated with protease K and RNase. […] The viral DNA is detected by hybridization with ^32P-labeled DNA fragment of viral specific gene. Autoradiographic results are quantitated by Personal Densitometer SI (Molecular Dynamics., Sunnyvale, Calif.). The same membrane is stripped and rehybridized with human β-actin gene fragment. The viral DNA amount is subsequently normalized by viral DNA/human actin DNA.

[2] = tested on: FU catabolite amino acids; assay: FU metabolites by 19F-NMR in mice after pretreatment with BV analog; format: in vivo; details: BDF1 mice, 20 mg/kg p.o. two hours before FU 200 mg/kg i.p., one hour after FU
Experimental: Two hours after injection, 5-Flurouracil (FU) at a concentration of 200 mg/kg was administered i.p. […] Consequently, the coadministration of any one or more of the β-L nucleoside compounds along with FU or an FU produrg in the treatment of cancer to enhance the effectiveness of these agents is meritorious and unexpected.

[3] = in humans; generally ranging from about 20-30 minutes; cited from earlier work
CEM cells = assay: Cell cytotoxicity assay, cell growth; format: cell-based; details: three-day growth, 50% inhibition of cell growth
Experimental: as §2

EBV = assay: Anti-EBV activity, EBV DNA slot blot in H1 cells; format: cell-based, Epstein Barr virus; details: concentration that inhibits 50% of virus growth, 5 days
Experimental: as §1
A high yield of EBV producing cell line H1 derived from human P3HR1 cells was used in this study. Cells were cultured in RPMI medium supplemented with 10% dialyzed fetal bovine serum and 100 μg/ml Kanamycin and were grown at 37° C. in a humidified incubator containing 5% CO2.
H1 cells were maintained in logarithmic phase of growth for two days prior to the initiation of treatment. The H1 cells were seeded in 24 well plates at the density of 2×10^5 cells per well in 2 ml of fresh medium with or without drug treatment and were incubated at 37° C. for 5 days. Following the period of drug treatment the cells were pelleted and used to determine the inhibitory effect of drug on EBV DNA by slot blot assay.
A total of 4×10^5 H1 cells treated with the various nucleoside analogs (as set forth below) were lysed in 400 μl of 10 mM Tris-HCl (pH 7.5) solution by freezing and thawing 3 times. The cell lysate was treated with RNAase A (at a final concentration of 50 μg/ml) at 37° C. for 30 minutes and then with proteinase K (at a final concentration of 100 μg/ml) at 55° C. for 2 hr. The samples were denatured by adjusting the final concentration to 0.4N NaOH/10 mM EDTA at pH 8.2. After heating for 10 minutes in a water bath at 100° C., the samples were spotted onto positively charged nylon membrane using a manifold. […] The amount of EBV DNA in treated H1 cells was determined according to the ratio of EBV DNA to Alu DNA in comparison with non-treatment control H1 cells. […]

[4] = Human alphaherpesvirus 1, concentration that inhibits 50% of virus growth
[5] = Human alphaherpesvirus 3, concentration that inhibits 50% of virus growth, viral DNA, 72-hour postinfection
[6] = concentration that inhibits 50% of virus growth, viral DNA, 72-hour postinfection
[7] = concentration that inhibits 50% of virus growth
[8] = human gammaherpesvirus 4, 120 h

Row | IC50 (VZV; [5]) | Compound | IC50 (HSV-1; [4]) | IC50 at 3 days [1] | other results
1 | 0.0007 µM | O=c1[nH]c(=O)n([C@@H]2O[C@H](CO)[C@@H](O)[C@@H]2O)cc1/C=C/Br [D-ara-BVU, 1-β-D-arabinofuranosyl-(E)-5-(2-bromovinyl)uracil, reference compound] |  | > 100 µM | effect on FU catabolite amino acids / break-down of FU (in words) [2]: decreased from catabolite amino acids
2 | > 30 µM | O=c1[nH]c(=O)n([C@H]2O[C@@H](CO)[C@H](O)[C@@H]2F)cc1/C=C/Br [L-BV2′F-dU, E-5-(2-Bromovinyl)-1-(2-deoxy-2-fluoro-β-L-ribofuranosyl) uracil] | > 50 µM | > 100 µM | 
3 | > 30 µM | O=c1[nH]c(=O)n([C@H]2CO[C@H](CO)O2)cc1/C=C/I [L-α-IVOddU, (2S,5R)-E-5-(2-Iodovinyl)-1-[2-(hydroxymethyl)-1,3-dioxolan-5-yl]uracil] | > 50 µM | > 100 µM | melting point: 60 °C (dec.)
4 | 12.5 µM | O=c1[nH]c(=O)n([C@@H]2CS[C@H](CO)O2)cc1/C=C/Br [L-β-BVSddU, (2R,5S)-E-5-(2-Bromovinyl)-1-(2-hydroxymethyl-1,3-oxathiolan-5-yl)uracil] |  | > 100 µM | IC50 (EBV; [8]): > 50 µM
5 | 0.035 µM | O=c1[nH]c(=O)n([C@@H]2CO[C@H](CO)O2)cc1/C=C/I [L-β-IVOddU, (2S,5S)-E-5-(2-Iodovinyl)-1-[2-(hydroxymethyl)-1,3-dioxolan-5-yl]uracil] | 33 µM | > 100 µM | melting point: 162 °C (dec.); IC50 (EBV; [8]): 4.1 µM

The remaining lines, values behind:

Row | Compound | IC50 (VZV; [5]) | IC50 (HSV-1; [4]) | IC50 at 3 days [1] | other results
6 | Nc1nc2c(ncn2COCCO)c(=O)[nH]1 [Acyclovir, reference compound] |  | 13.6 µM | > 100 µM | 
7 | O=c1[nH]c(=O)n([C@H]2C[C@H](O)[C@@H](CO)O2)cc1/C=C/Br [D-BVDU, (E)-5-(2-bromovinyl)-2′-deoxyuridine, reference compound] |  |  | > 100 µM | IC50 (VZV; Human alphaherpesvirus 3, 72 h): 0.05 µM
8 | O=c1[nH]c(=O)n([C@@H]2CO[C@@H](CO)O2)cc1/C=C/Br [D-α-BVOddU, (2R,5S)-E-5-(2-Bromovinyl)-1-[2-(hydroxymethyl)-1,3-dioxolan-5-yl]uracil] | > 30 µM | > 50 µM | > 100 µM | 
9 | O=c1[nH]c(=O)n([C@H]2CO[C@@H](CO)O2)cc1/C=C/Br [D-β-BVOddU, (2R,5R)-E-5-(2-Bromovinyl)-1-[2-(hydroxymethyl)-1,3-dioxolan-5-yl]uracil] | 26 µM | > 50 µM | > 100 µM | 
10 | O=c1[nH]cc(F)c(=O)[nH]1 [FU, 5-fluorouracil] |  |  |  | half-life of FU [3]: approximately 25 minutes
11 | O=c1[nH]c(=O)n([C@@H]2C[C@@H](O)[C@H](CO)O2)cc1/C=C/Br [L-BVDU, E-5-(2-Bromovinyl)-2′-deoxy-L-uridine] |  |  |  | IC50 (VZV; [6]): > 100 µM; IC50 (CEM cells): > 100 µM
12 | O=c1[nH]c(=O)n([C@@H]2CO[C@H](CO)O2)cc1Br [L-BrOddU, reference compound] |  |  |  | IC50 (HSV-1; [7]): > 100 µM; IC50 (EBV): 0.2 µM; IC50 (VZV; [6]): > 30 µM; IC50 (CEM cells): > 100 µM
13 | O=c1[nH]c(=O)n([C@@H]2CO[C@H](CO)O2)cc1I [L-IOddU, reference compound] |  |  |  | IC50 (HSV-1; [7]): 70 µM; IC50 (EBV): 0.1 µM; IC50 (VZV; [6]): 17 µM; IC50 (CEM cells): > 100 µM
14 | O=c1[nH]c(=O)n([C@H]2CO[C@H](CO)O2)cc1/C=C/Br [L-α-BVOddU, (2S,5R)-E-5-(2-Bromovinyl)-1-[2-(hydroxymethyl)-1,3-dioxolan-5-yl]uracil] | > 30 µM | > 50 µM | > 100 µM | 
15 | O=c1[nH]c(=O)n([C@H]2CO[C@H](CO)O2)cc1/C=C/Cl [L-α-ClVOddU, (2S,5R)-E-5-(2-Chlorovinyl)-1-[2-(hydroxymethyl)-1,3-dioxolan-5-yl]uracil] | > 30 µM | > 50 µM | > 100 µM | melting point: 101 to 102 °C
16 | O=c1[nH]c(=O)n([C@@H]2CO[C@H](CO)O2)cc1/C=C/Br [L-β-BVOddU, (2S,5S)-E-5-(2-Bromovinyl)-1-[2-(hydroxymethyl)-1,3-dioxolan-5-yl]uracil] | 0.07 µM | 36 µM | > 100 µM | inhibition of FU catabolite amino acids [2]: ~100%
17 | O=c1[nH]c(=O)n([C@@H]2CO[C@H](CO)O2)cc1/C=C/Cl [L-β-ClVOdd, (2S,5S)-E-5-(2-Chlorovinyl)-1-[2-(hydroxymethyl)-1,3-dioxolan-5-yl]uracil] | 0.15 µM | 18 µM | > 100 µM | 
18 | Nc1nc(O)c2ncn(CCC(CO)CO)c2n1 [Pencyclovir, reference compound] |  |  |  | IC50 (HSV-1; [7]): 18 µM; IC50 (VZV; [6]): 0.14 µM; IC50 (CEM cells): > 100 µM
